pIC50: −log10 of the molar value.
Assays:
[1] = test system: abdominal stretching after phenylbenzoquinone (PBQ); assay: analgesic activity: blockade of abdominal stretching after phenylbenzoquinone (PBQ); type: in vivo, mice, Carworth CF-1 strain; parameters: key: (a): No significant activity noted at this dose level; conditions: s.c., 20 min. pre-treatment
Description: To test for the analgesic activity of the compounds of the present invention, a chemical nociceptive stimulus is employed, viz., blockade of abdominal stretching after phenylbenzoquinone (PBQ). […] The animals to be used are fasted for 15-16 hr. before the start of the experiment. Fifteen mice (groups of 5) weighing 11-15 g. are employed per dose level. Compounds are given by the oral or subcutaneous route. Drug pre-treatment times are 1 hr. (p.o.) and 20 min. (s.c.). Pairs of mice are injected with 2 mg./kg. of PBQ i.p. and placed in a lucite box (11×7×9.5 in.) maintained at 40° by a thermostatically controlled water bath. Starting 5 min. later the animals are observed for 5 min. and the number of abdominal stretching responses per animal is recorded. A stretch is considered to represent an intermittent contraction of the abdomen, hind limb extension, pelvic rotation, or opisthotonos (the abdomen of the mouse touches the floor of the cage and is dragged the length of the cage). The degree of analgesic protection is calculated on the basis of the suppression of writhing relative to control animals run on the same day (% MPE). This test reflects the ultimate clinical utility of the compounds as analgesic agents.

enkephalinase [2] = molecular target: T1, enkephalinase (Rattus norvegicus, UniProt P07861); assay: inhibition of enkephalinase enzyme in vitro (Tyr-gly-gly formation from 3H-leucine-enkephalin); type: biochemical, Sprague-Dawley CD male rats (whole brain minus cerebellum); conditions: pH 7.7, 37° C., 1 hour
T1 construct: whole brain (minus cerebellum) is removed from Sprague-Dawley CD male rats; from tissue; host or cells: rat whole brain minus cerebellum (Sprague-Dawley CD male rats, Charles River); washed membranes solubilized with 1% Triton X-100
T1 sequence (P07861 1-750): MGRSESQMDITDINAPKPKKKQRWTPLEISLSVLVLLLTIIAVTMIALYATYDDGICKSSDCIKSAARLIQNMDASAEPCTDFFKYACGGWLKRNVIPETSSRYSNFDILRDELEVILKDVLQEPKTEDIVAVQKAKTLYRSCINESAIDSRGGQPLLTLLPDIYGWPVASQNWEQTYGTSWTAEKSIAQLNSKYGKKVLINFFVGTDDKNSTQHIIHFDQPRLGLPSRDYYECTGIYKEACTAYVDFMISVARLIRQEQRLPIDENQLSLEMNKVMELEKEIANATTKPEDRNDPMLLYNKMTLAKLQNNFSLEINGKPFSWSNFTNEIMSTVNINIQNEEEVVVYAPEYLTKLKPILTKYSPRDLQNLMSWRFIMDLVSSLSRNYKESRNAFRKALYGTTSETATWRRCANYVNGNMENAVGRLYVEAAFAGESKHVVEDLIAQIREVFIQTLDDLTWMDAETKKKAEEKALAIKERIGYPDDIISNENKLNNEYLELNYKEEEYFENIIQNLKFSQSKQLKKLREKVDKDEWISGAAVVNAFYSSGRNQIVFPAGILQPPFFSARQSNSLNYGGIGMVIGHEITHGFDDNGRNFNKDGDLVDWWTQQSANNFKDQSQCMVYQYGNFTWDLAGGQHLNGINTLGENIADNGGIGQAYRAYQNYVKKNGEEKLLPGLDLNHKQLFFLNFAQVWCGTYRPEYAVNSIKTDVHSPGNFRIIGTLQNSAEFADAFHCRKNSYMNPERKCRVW
Description: The compounds of the present invention are studied in vitro for inhibition of enkephalinase enzyme in the following manner. To prepare the enzyme, whole brain (minus cerebellum) is removed from Sprague-Dawley CD male rats (Charles River Breeding Laboratories, Inc., Wilmington, MA; 200-250 g.) following decapitation. The tissue is homogenized (Polytron, Brinkmann Instruments, Inc., Westbury, NY) in 30 volumes (w/v) of ice-cold 50 mM Tris-HCl tris(hydroxymethyl)methylamine hydrochloride, Fisher Scientific Co., Fair Lawn, NJ) pH 7.7 buffer. The homogenate in centrifuged at 50,000×g. for 15 minutes. The pellet is resuspended in 50 mM Tris-HCl pH 7.7 buffer and centrifuged at 50,000×g. for 15 minutes. The resultant pellet is resuspended and centrifuged 3 additional times as described above. The membrane pellet is dispersed in 15 volumes of 50 mM Tris-HCl pH 7.7 buffer containing 1% Triton X-100 (Rohm and Haas, Philadelphia, PA) and incubated at 37° C. for 45 minutes. After centrifugation at 100,000×g. for 60 minutes, the solubilized enzymes are frozen in 2 ml. aliquots (this preparation can be stored frozen for 3 months).
One set of control tubes contains boiled enzyme (heated at 100° C. for 10 minutes) for blank. The reaction is stopped by boiling tubes for 10 minutes, followed by centrifugation for 1 minute in the Beckman Microfuge centrifuge. A ten microl aliquot of each supernatant is spotted on a thin layer chromatography (TLC) plate (Silica Gel 60, 20×20 cm, E. Merck, Darmstadt, Germany) using 1-8 samples per plate. Ten microl of a standard mixture consisting of 0.4 mg./ml. tyrosine (tyr, Mann Research Laboratories, Inc., New York, NY), 1 mg./ml. L-tyrosylglycine (tyr-gly Sigma), 1 mg./ml. L-tyrosylglycylglycine (tyr-gly-gly, Sigma) and 1 mg./ml. leucine-enkephalin (leu-E, Calbiochem-Behring Corp., La Jolla, CA) are spotted on top of each incubation mixture spot, as well as separately on each plate, to aid in zone indentification.
Plates are dried and placed in covered glass tanks equilibrated with 100 ml. of isopropanol:ethyl acetate:5% acetic acid (2:2:1). After development of the TLC plates, the separated products were visualized by spraying with a ninhydrin:acetone (0.5%, w/v) solution and heating for 10 minutes at 100° C. in a vacuum oven. Rf values of standard markers are: tyr, 0.33; tyr-gly, 0.20: tyr-gly-gly, 0.13; leu-E, 0.47. The radioactive spots are identified by the added markers and scraped into scintillation vials to which 1 ml. ethanol is added, followed by 10 ml. Aquasol-2 (New England Nuclear). Vials are kept overnight and counted for radioactivity in a liquid scintillation counter. Tyr-gly-gly formation is based on the difference between total counts per minute for this TLC zone minus the corresponding value obtained by using boiled enzyme (blank). […]

[3] = test system: supramaximal electroconvulsive shock (ECS); assay: anticonvulsant effect vs. supramaximal electroconvulsive shock (ECS) in mice; type: in vivo, Charles River males, Swiss CD strain; conditions: for ED50: Mus musculus, sc, mice, 1 hr. before ECS
Description: The anticonvulsant activity of the compounds of the present invention is determined by testing in mice, viz., Charles River males, Swiss CD strain (17-21 g.), fasted for 18 hr. before testing. Groups of mice are treated with a range of levels of the test compounds, and 1 hr. later with supramaximal electroconvulsive shock (ECS), administered for 0.2 sec. at 50 mA, 60 Hz, through transcorneal electrodes. After administration of the electrical stimulus, each mouse is observed for 10 sec. for the presence or absence of hind limb tonic extension. […] Blockade of supramaximal ECS in mice is a common laboratory test for clinical utility as an anticonvulsant, and certain known anticonvulsant drugs show activity in this test.

tail withdrawal test = conditions: mice; Roques et al.; cited from earlier work
hot plate jump test = conditions: mice; Roques et al.; cited from earlier work
enkephalinase [4] = conditions: Roques et al., Nature 288, 286-288 (1980); cited from earlier work

pIC50 (enkephalinase [2]) | SMILES | Percent Blockade of Abdominal Stretching (% MPE) After Phenylbenzoquinone ([1]; 320 mg./kg.) | ED50 [3] | further results
– | CSCC[C@@H](CO)NC(=O)[C@H](CS)Cc1ccc(Cl)cc1 [II (X=4-Cl, R=H, n=2, m=0, R^1=CH3)] | 75 % MPE | – | –
– | COc1ccc(C[C@@H](CS)C(=O)N[C@H](CO)CCSC)cc1 [II (X=4-OCH3, R=H, n=2, m=0, R^1=CH3)] | 46 % MPE | – | –
5.02 | CSCC[C@@H](CO)NC(=O)[C@H](CS)Cc1ccccc1 [II (X=H, R=H, n=2, m=0, R^1=CH3)] | (a) | – | –
– | COc1ccc(C[C@H](CS)C(=O)N[C@H](CO)CCSC)cc1 [I (X=4-OCH3, R=H, n=2, m=0, R^1=CH3)] | 62 % MPE | – | –
6.32 | CSCC[C@@H](CO)NC(=O)[C@@H](CS)Cc1ccccc1 [I (X=H, R=H, n=2, m=0, R^1=CH3)] | 100 % MPE | 178 mg/kg | Percent Blockade of Abdominal Stretching (% MPE) After Phenylbenzoquinone ([1]; 170 mg./kg.): 23 % MPE; Percent Blockade of Abdominal Stretching (% MPE) After Phenylbenzoquinone ([1]; 233 mg./kg.): 69 % MPE
– | CSCC[C@@H](CO)NC(=O)[C@@H](CS)Cc1ccc(Cl)cc1 [I (X=4-Cl, R=H, n=2, m=0, R^1=CH3)] | 86 % MPE | – | –
7.15 | CSCC[C@H](NC(=O)[C@@H](CS)Cc1ccccc1)C(=O)O [IV] | – | 141 mg/kg | Percent Blockade of Abdominal Stretching (% MPE) After Phenylbenzoquinone ([1]; 160 mg./kg.): 48 % MPE
8.04 | CSCC[C@H](NC(=O)[C@H](CS)Cc1ccccc1)C(=O)O [III] | – | 74.1 mg/kg | Percent Blockade of Abdominal Stretching (% MPE) After Phenylbenzoquinone ([1]; 160 mg./kg.): 57 % MPE
– | O=C(O)CNC(=O)C(CS)Cc1ccccc1 (stereo not shown) [Thiorphan, N-(2-benzyl-3-mercaptopropionyl)glycine] | – | > 320 mg/kg | anticonvulsant activity (in words) ([3]; even at a much higher dose): inactive; analgesic (antinociceptive) activity, tail withdrawal test (in words) (tail withdrawal test): not in the so-called tail withdrawal test; analgesic (antinociceptive) activity, hot plate jump test (in words) (hot plate jump test): elicit analgesic (antinociceptive) activity; enkephalinase inhibition (in words) (enkephalinase [4]): specific enkephalinase inhibitor
